For 13 compounds, DC50 results are on record in US20240360146A1, “BRUTON'S TYROSINE KINASE AND MUTANT DEGRADER, COMPOSITION AND APPLICATION THEREOF” (HANGZHOU HEALZEN THERAPEUTICS CO., LTD., priority 2021, published 2024).

T1 sequence (Q06187 whole entry): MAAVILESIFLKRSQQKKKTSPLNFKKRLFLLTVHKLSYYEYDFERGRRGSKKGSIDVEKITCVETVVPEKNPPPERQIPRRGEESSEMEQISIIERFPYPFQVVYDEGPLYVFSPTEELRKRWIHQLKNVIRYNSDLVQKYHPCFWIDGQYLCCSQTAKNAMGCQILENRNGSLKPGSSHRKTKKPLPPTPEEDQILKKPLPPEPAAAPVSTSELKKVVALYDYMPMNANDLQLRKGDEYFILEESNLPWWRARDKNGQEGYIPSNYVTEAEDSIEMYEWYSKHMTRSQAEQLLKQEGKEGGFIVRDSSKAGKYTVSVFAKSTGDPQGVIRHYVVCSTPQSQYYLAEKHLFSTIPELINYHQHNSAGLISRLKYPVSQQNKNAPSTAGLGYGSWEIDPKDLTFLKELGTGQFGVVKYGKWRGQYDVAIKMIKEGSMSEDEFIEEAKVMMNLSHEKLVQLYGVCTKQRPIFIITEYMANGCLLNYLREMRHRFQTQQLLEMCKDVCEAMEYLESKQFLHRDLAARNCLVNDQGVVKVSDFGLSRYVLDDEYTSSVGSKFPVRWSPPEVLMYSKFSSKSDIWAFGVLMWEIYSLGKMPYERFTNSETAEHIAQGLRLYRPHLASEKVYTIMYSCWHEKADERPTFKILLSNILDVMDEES

The test has as its target T1, BTK (Homo sapiens, UniProt Q06187).
T1 construct: endogenous in cells; host or cells: Mino cells
Briefly: BTK degradation activity test in Mino cells. Format: cell-based. As to conditions: 16 h incubation, Western blot or Elisa. Summed up: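 DC50 derived by curve fitting of BTK degradation rates versus untreated control across compound concentrations. Mino cells were exposed for 16 h; BTK levels in lysates, normalised via BCA protein, measured by Western blot or ELISA.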
(Immunoblotting shows a protein as a band on a membrane.)
Broadly, the DC50 is the concentration at which degradation of the target reaches its halfway point. Turning to `CN1CCN(C2CC3CC2N(c2nnc(C(N)=O)c(Nc4ccc5c(c4)CCN(CC4CCN(c6ccc7c(c6)C(=O)N(C6CCC(=O)NC6=O)C7=O)CC4)C5)n2)C3)C1=O` (stereo not shown) [Compound 107, 5-((2-((1-(2-(2,6-dioxopiperidin-3-yl)-1,3-dioxoisoindol-5-yl)piperidin-4-yl)methyl)-1,2,3,4-tetrahydroisoquinolin-6-yl)amino)-3-(6-(3-methyl-2-oxoimidazolin-1-yl)-2-azabicyclo[2.2.1]heptan-2-yl)-1,2,4-triazin-6-carboxamide], the half-maximal degradation concentration (DC50) is under 1 nM.
In turn, `CN1CCN(C2CC3CC2N(c2nnc(C(N)=O)c(Nc4ccc(N5CCN(CC6CCN(c7ccc8c(c7)C(=O)N(C7CCC(=O)NC7=O)C8=O)CC6)CC5)cc4)n2)C3)C1=O` (stereo not shown) [Compound 108, 5-((4-(4-((1-(2-(2,6-dioxopiperidin-3-yl)-1,3-dioxoisoindol-5-yl)piperidin-4-yl)methyl)piperazin-1-yl)phenyl)amino)-3-(6-(3-methyl-2-oxoimidazolin-1-yl)-2-azabicyclo[2.2.1]heptan-2-yl)-1,2,4-triazin-6-carboxamide] came in with a DC50 of over 1 nM.
For `CN1CCN(C2CC3CC2N(c2nnc(C(N)=O)c(Nc4ccc(C5CCN(C6CCN(c7ccc8c(c7)C(=O)N(C7CCC(=O)NC7=O)C8=O)CC6)CC5)cc4)n2)C3)C1=O` (stereo not shown) [Compound 109, 5-((4-(1′-(2-(2,6-dioxopiperidin-3-yl)-1,3-dioxoisoindol-5-yl)-[1,4′-bipiperidin]-4-yl)phenyl)amino)-3-(6-(3-methyl-2-oxoimidazolin-1-yl)-2-azabicyclo[2.2.1]heptan-2-yl)-1,2,4-triazin-6-carboxamide], the half-maximal degradation concentration (DC50) is under 1 nM.
The value for `CN1CCN(C2CC3CC2N(c2nnc(C(N)=O)c(Nc4ccc(N5CCC(N6CCN(CC#Cc7ccc8c(c7)CN(C7CCC(=O)NC7=O)C8=O)CC6)CC5)cc4)n2)C3)C1=O` (stereo not shown) [Compound 110] was under 1 nM; that for `CN1CCN(C2CC3CC2N(c2nnc(C(N)=O)c(Nc4ccc(C5CCN(CC6CCN(c7cc8c(cc7F)C(=O)N(C7CCC(=O)NC7=O)C8=O)CC6)CC5)cc4)n2)C3)C1=O` (stereo not shown) [Compound 111, 5-((4-(1-((1-(2-(2,6-dioxopiperidin-3-yl)-6-fluoro-1,3-dioxoisoindol-5-yl)piperidin-4-yl)methyl)piperidin-4-yl)phenyl)amino)-3-(6-(3-methyl-2-oxoimidazolin-1-yl)-2-azabicyclo[2.2.1]heptan-2-yl)-1,2,4-triazin-6-carboxamide] was under 1 nM.
`CN1CCN(C2CC3CC2N(c2nnc(C(N)=O)c(Nc4ccc(C5CCN(CC6CCN(c7ccc8c(c7)C(=O)N(C7CCC(=O)NC7=O)C8)CC6)CC5)cc4)n2)C3)C1=O` (stereo not shown) [Compound 112, 5-((4-(1-((1-(2-(2,6-dioxopiperidin-3-yl)-3-oxoisoindol-5-yl)piperidin-4-yl)methyl)piperidin-4-yl)phenyl)amino)-3-(6-(3-methyl-2-oxoimidazolin-1-yl)-2-azabicyclo[2.2.1]heptan-2-yl)-1,2,4-triazin-6-carboxamide]: the half-maximal degradation concentration (DC50) is under 1 nM.
The value for `CN1CCN(C2CC3CC2N(c2nnc(C(N)=O)c(Nc4ccc(C5CCN(CC6CCN(c7ccc8c(c7)CN(C7CCC(=O)NC7=O)C8=O)CC6)CC5)cc4)n2)C3)C1=O` (stereo not shown) [Compound 113, 5-((4-(1-((1-(2-(2,6-dioxopiperidin-3-yl)-1-oxoisoindol-5-yl)piperidin-4-yl)methyl)piperidin-4-yl)phenyl)amino)-3-(6-(3-methyl-2-oxoimidazolin-1-yl)-2-azabicycloheptan-2-yl)-1,2,4-triazin-6-carboxamide] was under 1 nM.
Next, `CN1CCN(C2CC3CC2N(c2nnc(C(N)=O)c(Nc4ccc(C5CCN(CC6CCN(c7ccc8c(c7)n(C)c(=O)n8C7CCC(=O)NC7=O)CC6)CC5)cc4)n2)C3)C1=O` (stereo not shown) [Compound 114, 5-((4-(1-((1-(1-(2,6-dioxopiperidin-3-yl)-3-methyl-2-oxo-2,3-dihydro-1H-benzo[d]imidazol-5-yl)piperidin-4-yl)methyl)piperidin-4-yl)phenyl)amino)-3-(6-(3-methyl-2-oxoimidazolin-1-yl)-2-azabicyclo[2.2.1]heptan-2-yl)-1,2,4-triazin-6-carboxamide]: under 1 nM; `NC(=O)c1nnc(N2CCC[C@@H](N3CCN(CC(F)(F)F)C3=O)C2)nc1Nc1ccc(N2CCC(CN3CCN(c4cc5c(cc4F)C(=O)N(C4CCC(=O)NC4=O)C5=O)CC3)CC2)cc1` (stereo partly drawn) [Compound 142, 5-((4-(4-((4-(2-(2,6-dioxopiperidin-3-yl)-6-fluoro-1,3-dioxoisoindolin-5-yl)piperazin-1-yl)methyl)piperidin-1-yl)phenyl)amino)-3-((R)-3-(2-oxo-3-(2,2,2-trifluoroethyl)imidazolin-1-yl)piperidin-1-yl)-1,2,4-triazin-6-carboxamide]: under 1 nM.
`CN1CCN([C@@H]2CCCN(c3nnc(C(N)=O)c(Nc4ccc(N5CCN(C[C@H]6CCN(c7ccc(N8CCC(=O)NC8=O)cc7)C6)CC5)c(F)c4)n3)C2)C1=O` [Compound 151, 5-((4-(4-(((R)-1-(4-(2,4-dioxotetrahydropyrimidin-1(2H)-yl)phenyl)pyrrolidin-3-yl)methyl)piperazin-1-yl)-3-fluorophenyl)amino)-3-((R)-3-(3-methyl-2-oxoimidazolin-1-yl)piperidin-1-yl)-1,2,4-triazin-6-carboxamide] yielded a DC50 of under 1 nM.
Next, `CN1CCN([C@@H]2CCCN(c3nnc(C(N)=O)c(Nc4ccc(N5CCN(C[C@H]6CCN(c7ccc(C(=O)N[C@H]8CCC(=O)NC8=O)nc7)C6)CC5)c(F)c4)n3)C2)C1=O` [Compound 153, 5-((4-(4-(((R)-1-(6-(((S)-2,6-dioxopiperidin-3-yl)carbamoyl)pyridin-3-yl)pyrrolidin-3-yl)methyl)piperazin-1-yl)-3-fluorophenyl)amino)-3-((R)-3-(3-methyl-2-oxoimidazolin-1-yl)piperidin-1-yl)-1,2,4-triazin-6-carboxamide]: under 1 nM; `CN1CCN([C@@H]2CCCN(c3nnc(C(N)=O)c(Nc4ccc(N5CCN(C[C@@H]6CCN(c7ccc(C(=O)N[C@H]8CCC(=O)NC8=O)nc7)C6)CC5)c(F)c4)n3)C2)C1=O` [Compound 154, 5-((4-(4-(((S)-1-(6-(((S)-2,6-dioxopiperidin-3-yl)carbamoyl)pyridin-3-yl)pyrrolidin-3-yl)methyl)piperazin-1-yl)-3-fluorophenyl)amino)-3-((R)-3-(3-methyl-2-oxoimidazolin-1-yl)piperidin-1-yl)-1,2,4-triazin-6-carboxamide]: under 1 nM.
`CN1CCN([C@@H]2CCCN(c3nnc(C(N)=O)c(Nc4ccc(C5CCN(C[C@@H]6CCN(c7cc8c(cc7F)C(=O)N(C7CCC(=O)NC7=O)C8=O)C6)CC5)cc4)n3)C2)C1=O` (stereo partly drawn) [Compound 155, 5-((4-(1-(((3S)-1-(2-(2,6-dioxopiperidin-3-yl)-6-fluoro-1,3-dioxoisoindolin-5-yl)pyrrolidin-3-yl)methyl)piperidin-4-yl)phenyl)amino)-3-((R)-3-(3-methyl-2-oxoimidazolin-1-yl)piperidin-1-yl)-1,2,4-triazin-6-carboxamide] came in with a DC50 of under 1 nM.
